Results as given in patent US20260130933A1, “PHARMACEUTICAL COMPOSITION FOR PREVENTION OR TREATMENT OF NEPHROPATHY AND/OR DIABETES MELLITUS, COMPRISING ENAVOGLIFLOZIN” (DAEWOONG PHARMACEUTICAL CO., LTD., priority 2022, published 2026).

Experiment: Example 2: phase 3 trial, enavogliflozin 0.3 mg vs dapagliflozin 10 mg once a day for 24 weeks added to metformin in patients with type 2 diabetes (same efficacy, exploratory and safety endpoints)
Type: in vivo, human
Conditions: for HDL-C change from baseline, ANCOVA LS mean (SE) / HDL-C change from baseline, Mean (SD) / HDL-C change from baseline, Median / HDL-C, Mean (SD) / HDL-C, Median / LDL-C change from baseline, ANCOVA LS mean (SE) / LDL-C change from baseline, Mean (SD) / LDL-C change from baseline, Median / LDL-C, Mean (SD) / LDL-C, Median / Triglycerides change from baseline, ANCOVA LS mean (SE) / Triglycerides change from baseline, Mean (SD) / Triglycerides change from baseline, Median / Triglycerides, Mean (SD) / Triglycerides, Median: mPPS1; for Diastolic blood pressure change from baseline, ANCOVA LS mean (SE) / Diastolic blood pressure change from baseline, Mean (SD) / Diastolic blood pressure change from baseline, Median / Diastolic blood pressure, Mean (SD) / Diastolic blood pressure, Median / Systolic blood pressure change from baseline, ANCOVA LS mean (SE) / Systolic blood pressure change from baseline, Mean (SD) / Systolic blood pressure change from baseline, Median / Systolic blood pressure, Mean (SD) / Systolic blood pressure, Median: mPPS2
Protocol: Subjects who met the inclusion/exclusion criteria were administered a placebo of the clinical trial drug under single-blind (subject blinding) conditions during a 2-week run-in period while continuing to receive metformin. […] The randomized subjects were administered two tablets of the clinical trial drug for each administration group once a day, and then visited the institution at weeks 6, 12, 18, and 24 during the 24-week administration period to conduct efficacy and safety evaluations.
• 1. Change in HbA1c at week 24 after administration of clinical trial drug compared to Visit 2 (randomization)
• 1. Change in HbA1c at each time point of weeks 6, 12, and 18 after administration of clinical trial drug compared to Visit 2 (randomization) • 2. Change in FPG at each time point of weeks 6, 12, 18, and 24 after administration of clinical trial drug compared to Visit 2 (randomization) • 3. Proportion of subjects achieving HbA1c<7% at each time point of weeks 6, 12, 18, and 24 after administration of clinical trial drug • 4. Proportion of subjects achieving HbA1c<6.5% at each time point of weeks 6, 12, 18, and 24 after administration of clinical trial drug • 5. Proportion of subjects achieving therapeutic response (HbA1c change (HbA1c at Visit 2-HbA1c at each evaluation time point)>0.5% or HbA1c<7% at each evaluation time point compared to Visit 2 (randomization)) at each time point of weeks 6, 12, 18 and 24 after administration of clinical trial drug
• 1. Change in fasting c-peptide at each time point of weeks 6, 12, 18, and 24 after administration of clinical trial drug compared to Visit 2 (randomization) • 2. Change in body weight at each time point of weeks 6, 12, 18, and 24 after administration of clinical trial drug compared to Visit 2 (randomization) • 3. Change in fasting lipid concentration (total cholesterol, LDL-C, HDL-C, and triglycerides) at each time point of weeks 6, 12, 18, and 24 after administration of clinical trial drug compared to Visit 2 (randomization) • 4. Changes in systolic or diastolic blood pressure at each time point of weeks 6, 12, 18, and 24 after administration of clinical trial drug compared to Visit 2 (randomization) • 5. Changes in β-cell function and insulin resistance measured by HOMA-β and HOMA-IR at each time point of weeks 6, 12, 18, and 24 after administration of clinical trial drug compared to Visit 2 (randomization) • 6. Changes in renal function-related indicators (UACR, UGCR) measured by UACR at each time point of weeks 6, 12, 18, and 24 after administration of clinical trial drug compared to Visit 2 (randomization) • 7. Changes in obesity-related indicators (adiponectin, leptin) at each time point of weeks 6, 12, 18, and 24 after administration of clinical trial drug compared to Visit 2 (randomization)

## CCOc1ccc(Cc2cc([C@@H]3O[C@H](CO)[C@@H](O)[C@H](O)[C@H]3O)ccc2Cl)cc1 [Dapagliflozin, reference compound]
Week 12, PPS
  Leptin change from baseline, ANCOVA LS mean (SE): -2.70 ng/mL
  Leptin change from baseline, Mean (SD): -2.70 ng/mL
  Leptin change from baseline, Median: -1.94 ng/mL
  Leptin, Mean (SD): 9.07 ng/mL
  Leptin, Median: 6.05 ng/mL
  UACR change from baseline, ANCOVA LS mean (SE): -3.38 g/kg
  UACR change from baseline, Mean (SD): -8380 mg/kg
  UACR change from baseline, Median: -1.80 g/kg
  UACR, Mean (SD): 49420 mg/kg
  UACR, Median: 11.95 g/kg
  UGCR change from baseline, ANCOVA LS mean (SE): 45.14 mg/mg
  UGCR change from baseline, Mean (SD): 43.59 mg/mg
  UGCR change from baseline, Median: 40.62 mg/mg
  UGCR, Mean (SD): 45.57 mg/mg
  UGCR, Median: 40.89 mg/mg
Week 12
  HDL-C change from baseline, ANCOVA LS mean (SE): 2.25(0.62) mg/dL
  HDL-C change from baseline, Mean (SD): 2.65(5.61) mg/dL
  HDL-C change from baseline, Median: 2.00 mg/dL
  HDL-C, Mean (SD): 49.29(9.21) mg/dL
  HDL-C, Median: 49.00 mg/dL
  LDL-C change from baseline, ANCOVA LS mean (SE): 0.56(1.73) mg/dL
  LDL-C change from baseline, Mean (SD): 1.33(16.02) mg/dL
  LDL-C change from baseline, Median: 2.00 mg/dL
  LDL-C, Mean (SD): 77.54(25.39) mg/dL
  LDL-C, Median: 77.00 mg/dL
  Triglycerides change from baseline, ANCOVA LS mean (SE): −10.10(4.92) mg/dL
  Triglycerides change from baseline, Mean (SD): −14.35(70.12) mg/dL
  Triglycerides change from baseline, Median: -6.00 mg/dL
  Triglycerides, Mean (SD): 119.06(50.67) mg/dL
  Triglycerides, Median: 104.00 mg/dL
  Diastolic blood pressure change from baseline, ANCOVA LS mean (SE): −4.35 mmHg
  Diastolic blood pressure change from baseline, Mean (SD): −4.06 mmHg
  Diastolic blood pressure change from baseline, Median: −3.00 mmHg
  Diastolic blood pressure, Mean (SD): 71.86 mmHg
  Diastolic blood pressure, Median: 72.00 mmHg
  Systolic blood pressure change from baseline, ANCOVA LS mean (SE): −6.12(1.07) mmHg
  Systolic blood pressure change from baseline, Mean (SD): −5.86(11.46) mmHg
  Systolic blood pressure change from baseline, Median: −6.00 mmHg
  Systolic blood pressure, Mean (SD): 121.46(12.64) mmHg
  Systolic blood pressure, Median: 123.00 mmHg
Week 18, PPS
  Adiponectin change from baseline, ANCOVA LS mean (SE): 1.29 µg/mL
  Adiponectin change from baseline, Mean (SD): 1.28 µg/mL
  Adiponectin change from baseline, Median: 0.73 ng/mL
  Adiponectin, Mean (SD): 7.98 µg/mL
  Adiponectin, Median: 7.08 µg/mL
  HOMA-IR change from baseline, ANCOVA LS mean (SE): −1.47
  HOMA-IR change from baseline, Mean (SD): −1.61
  HOMA-IR change from baseline, Median: −1.07
  HOMA-IR, Mean (SD): 2.28
  HOMA-IR, Median: 2.07
  HOMA-β change from baseline, ANCOVA LS mean (SE): 13.49
  HOMA-β change from baseline, Mean (SD): 13.46
  HOMA-β change from baseline, Median: 9.80
  HOMA-β, Mean (SD): 58.55
  HOMA-β, Median: 51.80
  Leptin change from baseline, ANCOVA LS mean (SE): -1.23 ng/mL
  Leptin change from baseline, Mean (SD): -1.20 ng/mL
  Leptin change from baseline, Median: -1.37 ng/mL
  Leptin, Mean (SD): 10.72 ng/mL
  Leptin, Median: 6.16 ng/mL
  UACR change from baseline, ANCOVA LS mean (SE): -12.95 g/kg
  UACR change from baseline, Mean (SD): -20540 mg/kg
  UACR change from baseline, Median: -1.75 g/kg
  UACR, Mean (SD): 37260 mg/kg
  UACR, Median: 11.60 g/kg
  UGCR change from baseline, ANCOVA LS mean (SE): 42.72 mg/mg
  UGCR change from baseline, Mean (SD): 41.06 mg/mg
  UGCR change from baseline, Median: 40.72 mg/mg
  UGCR, Mean (SD): 43.00 mg/mg
  UGCR, Median: 40.86 mg/mg
Week 18
  HDL-C change from baseline, ANCOVA LS mean (SE): 3.08(0.67) mg/dL
  HDL-C change from baseline, Mean (SD): 3.17(5.82) mg/dL
  HDL-C change from baseline, Median: 2.00 mg/dL
  HDL-C, Mean (SD): 49.93(9.16) mg/dL
  HDL-C, Median: 49.00 mg/dL
  LDL-C change from baseline, ANCOVA LS mean (SE): 2.58(1.89) mg/dL
  LDL-C change from baseline, Mean (SD): 3.27(20.01) mg/dL
  LDL-C change from baseline, Median: 3.00 mg/dL
  LDL-C, Mean (SD): 79.71(26.69) mg/dL
  LDL-C, Median: 80.00 mg/dL
  Triglycerides change from baseline, ANCOVA LS mean (SE): 1.88(6.04) mg/dL
  Triglycerides change from baseline, Mean (SD): −4.10(62.62) mg/dL
  Triglycerides change from baseline, Median: 1.00 mg/dL
  Triglycerides, Mean (SD): 130.88(70.92) mg/dL
  Triglycerides, Median: 110.00 mg/dL
  Diastolic blood pressure change from baseline, ANCOVA LS mean (SE): −4.10 mmHg
  Diastolic blood pressure change from baseline, Mean (SD): −3.94 mmHg
  Diastolic blood pressure change from baseline, Median: −2.50 mmHg
  Diastolic blood pressure, Mean (SD): 72.08 mmHg
  Diastolic blood pressure, Median: 71.00 mmHg
  Systolic blood pressure change from baseline, ANCOVA LS mean (SE): −5.97(1.15) mmHg
  Systolic blood pressure change from baseline, Mean (SD): −5.43(12.97) mmHg
  Systolic blood pressure change from baseline, Median: −5.00 mmHg
  Systolic blood pressure, Mean (SD): 122.27(12.91) mmHg
  Systolic blood pressure, Median: 122.00 mmHg
Week 24, PPS
  Adiponectin change from baseline, ANCOVA LS mean (SE): 1.69 µg/mL
  Adiponectin change from baseline, Mean (SD): 1.72 µg/mL
  Adiponectin change from baseline, Median: 1.06 ng/mL
  Adiponectin, Mean (SD): 8.35 µg/mL
  Adiponectin, Median: 7.19 µg/mL
  HOMA-IR change from baseline, ANCOVA LS mean (SE): −1.31
  HOMA-IR change from baseline, Mean (SD): −1.47
  HOMA-IR change from baseline, Median: −1.17
  HOMA-IR, Mean (SD): 2.39
